Where two headings read alike, the source gives them in different places.
Legend:
[1] = biological target: T1, DDR1 (Homo sapiens, UniProt Q08345); assay: PathHunter U2OS DDR1 Functional Assay (DDR1 cellular assay); type: cell-based; conditions: U2OS PathHunter cells, collagen II stimulation; read-out: Cell DDR1 IC50
T1 construct: ProLink™ (PK) tagged full-length DDR1b; host or cells: U2OS human osteosarcoma cells (PathHunter U2OS DDR1)
Method: page 17: In vitro Biology DDR1 cellular assay The activity of Discoidin Domain-containing Receptor protein kinase (DDR) inhibitors was determined using the PathHunter® U2OS DDR1 Functional Assay which employs Enzyme Fragment Complementation (EFC) technology, where the β-galactosidase (β-gal) enzyme is split into two fragments, ProLink (PK) and Enzyme Acceptor (EA). Independently these fragments […] β-gal enzyme. In the PathHunter® U2OS DDR1 Functional Assay, the U2OS human osteosarcoma cell line is modified to co-express a ProLinkTM (PK) tagged full-length DDR1b and an Enzyme Acceptor (EA) tagged SH2 domain. Collagen II, as a ligand, induces activation of DDR1b which results in cross-phosphorylation. The SH2-EA fusion protein then specifically binds the phosphorylated receptor resulting in complementation of the two fragments of β-gal and formation of a functional enzyme. β-gal activity is then quantitatively detected using a chemiluminescent substrate. PathHunter® Human U2OS DDR1 cells were prepared in AssayCompleteTM Cell Plating 16 Reagent (DiscoverX 93-0563R16A) and plated at 5000 cells/well in a 384-well white, clear-bottom, sterile plate (ThermoFisher 142762) and incubated for 90 minutes at 37 °C, 5% CO2. Test compounds were serially diluted from a top concentration of 10 mM (1000x final assay concentration) directly in a 384-well low-volume polypropylene plate (Greiner bio-one 784201) using an Echo 555 acoustic liquid handler (Labcyte). Test compounds were diluted in AssayCompleteTM Cell Plating 16 Reagent then added to cells using an Integra ViaFlow384 electronic reagent dispenser and pre-incubated at 37 °C, 5% CO2 for 30 minutes. Following compound pre-incubation, the cells were stimulated with 20 μg/ml Bovine Type II Collagen (DiscoverX 92-1090) with incubation for 20 hours at 37 °C, 5% CO2. Next, PathHunter Detection Reagent (DiscoverX 93-[…]) was added to the cells, incubated for 60 minutes at 25 °C in the dark, prior to capturing the chemiluminescent signal on a PHERAstar (BMG LABTECH). The percentage of inhibition was calculated for each concentration of compound using a 0.1% DMSO vehicle/Collagen II control response as a 0% inhibition and a 10 nM Dasatinib/Collagen II positive 17 page 18: control response as a 100% inhibition. The final assay concentration of the top of the test compound CRC was 10 μM. 18

[2] = log k'80 PLRP-S chromatographic descriptor; type: physicochemical; conditions: surrogate of log Dtol
Source text: (§1) Lipophilicity has been obtained in four different systems. BRlogD and ChromlogD are chromatographic surrogates of log Doct and, despite showing different values, are linearly correlated (Figure S4). Log k′ 80 PLRP-S is a surrogate of log Dtol. Log kw ^IAM mimics the interaction between the compounds and the phospholipids of membranes. The combination of the experimental lipophilicity descriptors is essential to evaluate lipophilicity in different regions of the membrane bilayer. This complete lipophilicity profile may give an idea of the permeability potential of poorly soluble compounds for which standard permeability measurements are unreliable. […] This is supported by its low IC50 value in the cell-based assay.

[3] = Caco-2 membrane permeability assay; type: in vitro ADME; conditions: human
Method: Lucifer Yellow (LY) was added to the apical buffer in all wells to assess viability of the cell layer. As LY cannot freely permeate lipophilic barriers, a high degree of LY transport indicates poor integrity of the cell layer and wells with a LY Papp > 10 x 10-6 cm/s were rejected. Compound recovery from the wells was determined from MS responses (normalised to internal standard) in donor and acceptor chambers at the end of incubation compared to response in the donor chamber pre- […]
which may reduce the reliability of a result.
Caco-2 membrane permeability assay
Caco-2 cells (ECACC) were cultured in DMEM, 10% FBS, 1% NEAA, Hepes buffer 10 mM and in 50 U/mL penicillin and […] streptomycin. For transport studies, 200,000 cells/well were seeded on Millicell 24-well cell culture plates. After 24 hours of incubation at 37 °C and 5% CO2, the medium was changed with Enterocyte Differentiation Medium (Becton Dickinson), which allows Caco-2 cells to establish within three days a differentiated enterocyte monolayer. The permeability of the compounds across the cells’ monolayer was determined by measuring their transport in both directions: apical to basolateral (A → B) and basolateral to apical (B → A). For A → B directional transport, the donor working solution with test article 10 m M) was added to the apical (A) compartment and HBSS (pH 7.4) was added to the basolateral (B). For B → A directional transport, the donor working solution (with test article 10 m M) was added to the basolateral (B) compartment and HBSS (pH 7.4) was added to the apical (A). Samples were collected at T0 and after 2h incubation (5% CO2, 95% relative humidity, 37 °C) for LC-MS/MS analyses. The Papp expressed as nm/sec was calculated as follows: Papp (nm/sec) = (Vr/C0) x (1/A) x (Cr(t)/T) x 1000 000. Where
Vr is the volume of the solution in the receiving compartment (mL); C0 is initial test compound concentration in the donor compartment (expressed as area ratio); A is the membrane surface area (cm2); Cr (t) = measured concentration of the receiver well at time T120 (expressed as area ratio) and T is time of incubation (sec). Efflux ratio was also measured to understand if the compounds undergo active efflux: Efflux ratio = Papp [B > A] / Papp [A > B]. The rank order of apparent permeability of the test compound was compared with that of known reference compounds tested in the same experiment, including Sulpiride and Metoprolol (as marker for low and high permeability, respectively and Talinolol (as known P-gp substrate). […]

[4] = log kW IAM (immobilized artificial membrane chromatography); type: physicochemical; conditions: lipophilicity descriptor, phospholipid interaction
Source text: as §1

[5] = Δlog kW IAM polarity descriptor; type: physicochemical; conditions: polarity in aqueous medium
Method: Polarity is quantified by two descriptors: EPSA and Δlog kw ^IAM. The first is measured in an almost fully nonpolar environment, and the second describes polarity in an aqueous medium. […] This is also in line with the higher solubility of KIMCs over 1.

[6] = Caco-2, pH 7.4, Caco-2 Papp AB with Pgp inhibitor
[7] = Caco-2, pH 7.4, Caco-2 Papp AB without Pgp inhibitor
[8] = Caco-2, pH 7.4, Caco-2 Papp BA with Pgp inhibitor
[9] = Caco-2, pH 7.4, Caco-2 Papp BA without Pgp inhibitor
[10] = Caco-2, pH 7.4, A to B, without Pgp inhibitor, pH 7.4, 2 h, read-out: Caco-2 Papp AB without Pgp inhibitor
[11] = Caco-2, pH 7.4, B to A, without Pgp inhibitor, pH 7.4, 2 h, read-out: Caco-2 Papp BA without Pgp inhibitor (converted)
[12] = Caco-2, pH 7.4, with Pgp inhibitor (name and concentration not stated), A to B, with Pgp inhibitor, pH 7.4, 2 h, read-out: Caco-2 Papp AB with Pgp inhibitor
[13] = Caco-2, pH 7.4, with Pgp inhibitor (name and concentration not stated), B to A, with Pgp inhibitor, pH 7.4, 2 h, read-out: Caco-2 Papp BA with Pgp inhibitor (converted)

T1 sequence (Q08345 19-913): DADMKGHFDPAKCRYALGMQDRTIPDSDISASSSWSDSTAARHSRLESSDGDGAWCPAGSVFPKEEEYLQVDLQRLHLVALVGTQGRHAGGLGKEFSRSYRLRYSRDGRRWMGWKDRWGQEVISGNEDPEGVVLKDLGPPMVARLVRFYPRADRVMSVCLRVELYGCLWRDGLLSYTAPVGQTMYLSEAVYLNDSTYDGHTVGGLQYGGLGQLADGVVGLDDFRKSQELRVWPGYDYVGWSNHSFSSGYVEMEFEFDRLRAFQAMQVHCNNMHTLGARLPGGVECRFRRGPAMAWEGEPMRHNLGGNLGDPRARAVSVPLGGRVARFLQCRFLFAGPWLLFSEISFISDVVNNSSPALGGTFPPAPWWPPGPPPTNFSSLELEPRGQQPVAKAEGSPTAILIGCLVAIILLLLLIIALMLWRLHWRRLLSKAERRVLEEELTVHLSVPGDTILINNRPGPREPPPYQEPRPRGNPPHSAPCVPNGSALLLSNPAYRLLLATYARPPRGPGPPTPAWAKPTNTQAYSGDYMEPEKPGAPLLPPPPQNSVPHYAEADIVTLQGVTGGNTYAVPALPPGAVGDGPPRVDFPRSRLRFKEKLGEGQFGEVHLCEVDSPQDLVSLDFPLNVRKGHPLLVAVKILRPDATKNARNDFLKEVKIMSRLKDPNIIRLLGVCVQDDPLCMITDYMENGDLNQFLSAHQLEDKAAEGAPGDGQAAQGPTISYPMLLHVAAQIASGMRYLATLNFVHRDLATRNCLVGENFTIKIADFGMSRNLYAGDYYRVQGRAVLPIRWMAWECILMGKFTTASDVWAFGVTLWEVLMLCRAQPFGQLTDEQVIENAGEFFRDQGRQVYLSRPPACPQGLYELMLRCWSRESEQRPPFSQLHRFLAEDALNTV

Structure (SMILES)	IC50 [1] [nM]	logk'80 PLRP-S [2]	Papp A→B at 2 h, 10 µM [3, 6] [×10⁻⁶ cm/s]	Papp A→B at 2 h, 10 µM [3, 7] [×10⁻⁶ cm/s]	Papp B→A at 2 h, 10 µM [3, 8] [×10⁻⁶ cm/s]	Papp B→A at 2 h, 10 µM [3, 9] [×10⁻⁶ cm/s]	log kW^IAM [4]	Δlog kW^IAM [5]	Papp A→B at 2 h, 10 µM [3, 10] [×10⁻⁶ cm/s]	Papp B→A at 2 h, 10 µM [3, 11] [×10⁻⁶ cm/s]	Papp A→B at 2 h, 10 µM [3, 12] [×10⁻⁶ cm/s]	Papp B→A at 2 h, 10 µM [3, 13] [×10⁻⁶ cm/s]
Cn1cc2c3nc(ncc31)Nc1cnn(c1)CCCNCCOc1ccc-2cc1 [Compound 5a]	125	-0.65	19.9 ± 2.7	10.2 ± 1.5	13.5	24.2	2.33	2.77				
Cn1cc2c3nc(ncc31)Nc1cnn(c1)CCCNC(=O)COc1ccc-2cc1 [Compound 5b]	2000	-0.68					1.87	2.41	3 ± 0.6	21.5	22.8 ± 2.8	15.9
c1cc2nc(n1)Nc1cnn(c1)CCCNCCOc1ccc(cc1)N2 [Compound 6a]	1250	-0.93	8.7 ± 1.9	1.9 ± 0.5	7	22	1.96	3.26				
O=C1COc2ccc(cc2)Nc2ccnc(n2)Nc2cnn(c2)CCCN1 [Compound 6b]	> 3150	-0.85					1.53	2.58	0.6 ± 0.1	22.3	5.5 ± 0.2	20.3
